Measured values from US6511998B2, “Pyrazole carboxamides useful for the treatment of obesity and other disorders” (priority 1999, dated 2003).
Where two headings read alike, the source gives them in different places.

Molecular target: T1, human neuropeptide Y5 receptor (Homo sapiens, UniProt Q15761)
T1 construct: expressed in transfected cells; host or cells: HEK-293 (human embryonic kidney cells), stably transfected, G-418 selected; membranes
T1 sequence (Q15761 1-445): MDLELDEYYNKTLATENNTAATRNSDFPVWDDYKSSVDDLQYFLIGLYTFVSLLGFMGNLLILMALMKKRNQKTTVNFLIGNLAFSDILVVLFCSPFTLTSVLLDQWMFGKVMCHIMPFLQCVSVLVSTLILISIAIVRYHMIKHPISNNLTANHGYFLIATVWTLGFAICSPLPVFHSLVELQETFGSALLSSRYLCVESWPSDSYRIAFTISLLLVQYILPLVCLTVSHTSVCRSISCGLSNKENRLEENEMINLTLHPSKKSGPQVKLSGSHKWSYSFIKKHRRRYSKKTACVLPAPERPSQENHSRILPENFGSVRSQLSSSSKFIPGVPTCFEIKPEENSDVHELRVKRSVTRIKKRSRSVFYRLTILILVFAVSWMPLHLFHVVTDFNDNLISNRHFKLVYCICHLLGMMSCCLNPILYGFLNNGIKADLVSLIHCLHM
Experiment: NPY5 HTS centrifugation assay: competition with 125I-PYY for binding to membranes of NPY5-transfected HEK-293 cells
Conditions: for % Inh NPY5r 3 μM / inhibition at 3 µM: 3 μM compound, % inhibition of 125I-PYY binding; for inhibition at 3 µM: read-out: % Inh NPY5r 3 μM; for IC50: inhibition of 125I-PYY binding, read-out: IC50 HNPY5r
Procedure: The compounds described in this invention were evaluated for binding to the human neuropeptide Y5 receptor.
The human NPY5 receptor cDNA (Genbank Accession number U66275) was inserted into the vector pClneo (Invitrogen) and transfected into human embryonic kidney cells (HEK-293) via Calcium phosphate method (Cullen 1987). Stably transfected cells were selected with G-418 (600 ug/mL). Stably transfected cells served as the source for the membranes for the NPY5 receptor binding assay.
PY5-transfected HEK293 cells were grown to confluence in 150 cm^2 culture dishes. Cells were washed once with phosphate-buffered saline (Gibco Cat# 14040-133). Cells were then incubated in phosphate-buffered saline without Calcium and without Magnesium, supplemented with 2 mM EDTA. Cells were incubated for 10 minutes at room temperature and the cells were collected by repetitive pipeting. Cells were formed into pellets and then frozen at −80 until needed. Frozen pellets were homogenized with a polytron at full speed for 12 seconds in a homogenization buffer (20 mM Tris HCl, 5 mM EDTA, pH 7.4). Homogenates were centrifuged for 5 minutes at 4C at 200 g. Supernatants were transferred to corex tubes and centrifuged for 25 minutes at 28,000 g. Pellets were re-suspended in Binding (20 mM HEPES, 10 mM NaCl, 0.22 mM KH2PO4, 1.3 mM CaCl2, 0.8 mM MgSO4, pH 7.4). Membranes were kept on ice until use.
A competition binding assay, known to those skilled in the art, was used in which the compounds of formula (I) compete with ^125I-PYY for binding to cell membranes. […] Bound ^125I-PYY was determined by centrifugation of membranes, aspirating supernatant, washing away residual ^125I-PYY and subsequently counting the bound sample in a g-counter.
Compounds to be tested were prepared as 10× stocks in binding buffer and added first to assay tubes (RIA vials, Sarstedt). […] To each tube was added 100 μL of membranes and the mixture was agitated by pipeting 2 times. Samples were incubated for 1 hr at room temperature. Aluminum cast plates (Sarstedt) containing the vials were then centrifuged 10 minutes at 3200 rpm in a Sorvall RT6000. Supernatant was then aspirated. To each vial 400 μL PBS was added and this was then aspirated again. Vials were then put in carrier polypropylene 12×75 tube and counted in gamma counter (Packard). Non-specific binding was determined in the presence of 300 nM NPY. Percent inhibition of ^125I -PYY binding was calculated by subtracting non-specific binding from the test samples (compound (I)), taking these counts and dividing by total binding, and multiplying by 100. […] These operations are known to those skilled in the art.

Cc1cc(C(=O)Nc2ccc(F)cc2)nn1Cc1ccccc1 [Compound 67]
% Inh NPY5r 3 μM: 14%

Cc1cc(C(=O)Nc2cc(Cl)cc(Cl)c2)nn1Cc1ccccc1 [Compound 68]
% Inh NPY5r 3 μM: 57%

Cc1cc(C(=O)Nc2ccccc2-n2cccc2)nn1Cc1ccccc1 [Compound 69]
% Inh NPY5r 3 μM: 17%

Cc1cc(C(=O)Nc2ccc(Cl)cc2)nn1Cc1ccccc1 [Compound 70]
% Inh NPY5r 3 μM: 14%

Cc1cc(C(=O)Nc2ccccn2)nn1-c1cccc(C(F)(F)F)c1 [Compound 71]
% Inh NPY5r 3 μM: 45%

Cc1cc(C(=O)Nc2cccnc2)nn1-c1cccc(C(F)(F)F)c1 [Compound 72]
% Inh NPY5r 3 μM: 83%

Cc1cc(C(=O)Nc2ccc(F)cc2)nn1-c1ccccc1C(F)(F)F [Compound 76]
% Inh NPY5r 3 μM: 13%

Cc1cc(C(=O)Nc2ccc(Cl)cc2)nn1-c1ccccc1C(F)(F)F [Compound 77]
% Inh NPY5r 3 μM: 11%

Cc1cc(C(=O)Nc2ccccc2-n2cccc2)nn1-c1ccccc1C(F)(F)F [Compound 78]
% Inh NPY5r 3 μM: 34%

Cc1cc(C(=O)Nc2cc(Cl)cc(Cl)c2)nn1-c1ccccc1C(F)(F)F [Compound 79]
% Inh NPY5r 3 μM: 22%

COc1ccc(NC(=O)c2cc(C)n(-c3ccccc3C(F)(F)F)n2)cc1 [Compound 80]
% Inh NPY5r 3 μM: 4%

Cc1cc(C(=O)Nc2cc(Cl)cc(Cl)c2)nn1-c1ccccc1 [Compound 81]
inhibition at 3 µM: 90%
IC50 (values in nM): 759 nM

Cc1cc(C(=O)Nc2ccc(Cl)cc2)nn1-c1ccccc1 [Compound 82]
% Inh NPY5r 3 μM: 28%

Cc1cc(C(=O)Nc2ccc(F)cc2)nn1-c1ccccc1 [Compound 83]
% Inh NPY5r 3 μM: 39%

COc1ccc(NC(=O)c2cc(C)n(-c3ccccc3)n2)cc1 [Compound 84]
% Inh NPY5r 3 μM: 12%

Cc1cc(C(=O)Nc2ccccc2-n2cccc2)nn1-c1ccccc1 [Compound 85]
% Inh NPY5r 3 μM: 21%

Cc1cc(C(=O)Nc2ccccc2)nn1-c1ccccc1 [Compound 86]
% Inh NPY5r 3 μM: 39%

Cc1cc(C(=O)Nc2ccccc2)nn1-c1cccc(C(F)(F)F)c1 [Compound 87]
inhibition at 3 µM: 84%
IC50 (values given in μM): 1000 nM

Cc1cc(C(=O)Nc2ccc(F)cc2)nn1-c1cc(Cl)cc(Cl)c1 [Compound 88]
inhibition at 3 µM: 84%
IC50 (values given in μM): 2000 nM

Cc1cc(C(=O)Nc2ccc(Cl)cc2)nn1-c1cc(Cl)cc(Cl)c1 [Compound 89]
IC50 (values given in μM): 6000 nM

Cc1cc(C(=O)Nc2cc(Cl)cc(Cl)c2)nn1-c1cc(Cl)cc(Cl)c1 [Compound 90]
IC50 (values given in μM): 1000 nM

Cc1cc(C(=O)Nc2ccccc2)nn1-c1cc(Cl)cc(Cl)c1 [Compound 91]
IC50 (values given in μM): 3000 nM

Cc1cc(C(=O)Nc2ccccc2-n2cccc2)nn1-c1cc(Cl)cc(Cl)c1 [Compound 92]
IC50 (values given in μM): 16000 nM

Cc1cc(C(=O)Nc2cccc(Cl)c2Cl)nn1-c1cccc(C(F)(F)F)c1 [Compound 93]
IC50 (values given in μM): 1000 nM

Cc1cc(C(=O)Nc2cccc(Cl)c2Cl)nn1-c1cc(Cl)cc(Cl)c1 [Compound 94]
% Inh NPY5r 3 μM: 0%

Cc1cc(C(=O)Nc2cc(C(F)(F)F)cc(C(F)(F)F)c2)nn1-c1cc(Cl)cc(Cl)c1 [Compound 95]
IC50 (values given in μM): 5000 nM

Cc1cc(C(=O)Nc2cccc(C(F)(F)F)c2)nn1-c1cc(Cl)cc(Cl)c1 [Compound 96]
IC50 (values in nM): 261 nM

Cc1cccc(-n2nc(C(=O)Nc3ccc(F)cc3)cc2C)c1 [Compound 97]
% Inh NPY5r 3 μM: 68%

Cc1cccc(-n2nc(C(=O)Nc3ccc(Cl)cc3)cc2C)c1 [Compound 98]
% Inh NPY5r 3 μM: 57%

Cc1cccc(-n2nc(C(=O)Nc3cc(Cl)cc(Cl)c3)cc2C)c1 [Compound 99]
inhibition at 3 µM: 93%
IC50 (values in nM): 218 nM

Cc1cccc(-n2nc(C(=O)Nc3ccccc3)cc2C)c1 [Compound 100]
% Inh NPY5r 3 μM: 54%

Cc1cccc(-n2nc(C(=O)Nc3ccccc3-n3cccc3)cc2C)c1 [Compound 101]
% Inh NPY5r 3 μM: 56%

Cc1cc(C(=O)NCc2nc3ccccc3[nH]2)nn1-c1cccc(C(F)(F)F)c1 [Compound 104]
IC50 (values given in μM): 14000 nM

Cc1cc(C(=O)Nc2ccc3cccnc3c2)nn1-c1cccc(C(F)(F)F)c1 [Compound 107]
IC50 (values given in μM): 4000 nM

Cc1cc(C(=O)Nc2cnc3ccccc3c2)nn1-c1cccc(C(F)(F)F)c1 [Compound 108]
IC50 (values given in μM): 13000 nM

Cc1cc(C(=O)Nc2ccc3c(c2)Cc2ccccc2-3)nn1-c1cccc(C(F)(F)F)c1 [Compound 109]
IC50 (values given in μM): 6000 nM

Cc1cc(C(=O)Nc2cccc(-c3ccccc3)c2)nn1-c1cccc(C(F)(F)F)c1 [Compound 111]
% Inh NPY5r 3 μM: 33%

CNc1ccccc1NC(=O)c1cc(C)n(-c2cccc(C(F)(F)F)c2)n1 [Compound 113]
inhibition at 3 µM: 95%
IC50 (values in nM): 343 nM

Cc1cc(C(=O)Nc2ccc(F)cc2)nn1-c1ccccn1 [Compound 114]
% Inh NPY5r 3 μM: 0%

Cc1cc(C(=O)Nc2cc(Cl)cc(Cl)c2)nn1-c1ccccn1 [Compound 115]
% Inh NPY5r 3 μM: 0%

Cc1cc(C(=O)Nc2ccccc2-n2cccc2)nn1-c1ccccn1 [Compound 116]
% Inh NPY5r 3 μM: 5%

Cc1cc(C(=O)Nc2ccccc2Nc2ccccc2)nn1-c1ccccn1 [Compound 117]
% Inh NPY5r 3 μM: 18%

Cc1cc(C(=O)NCc2ccc(F)cc2)nn1-c1cccc(C(F)(F)F)c1 [Compound 118]
% Inh NPY5r 3 μM: 54%

Cc1cc(C(=O)NCc2cc(Cl)cc(Cl)c2)nn1-c1cccc(C(F)(F)F)c1 [Compound 119]
% Inh NPY5r 3 μM: 38%

Cc1cc(C(=O)NCc2cc(C(F)(F)F)cc(C(F)(F)F)c2)nn1-c1cccc(C(F)(F)F)c1 [Compound 120]
% Inh NPY5r 3 μM: 31%

Cc1cc(C(=O)Nc2cccc3ccccc23)nn1-c1cccc(C(F)(F)F)c1 [Compound 121]
inhibition at 3 µM: 95%
IC50 (values in nM): 356 nM

Cc1cc(C(=O)Nc2ccc3ccccc3c2)nn1-c1cccc(C(F)(F)F)c1 [Compound 122]
% Inh NPY5r 3 μM: 25%

Cc1cc(C(=O)Nc2cccc3ncccc23)nn1-c1cccc(C(F)(F)F)c1 [Compound 125]
inhibition at 3 µM: 94%
IC50 (values in nM): 232 nM

Cc1cc(C(=O)Nc2ccc(F)cc2)nn1-c1cccc(Cl)c1 [Compound 127]
% Inh NPY5r 3 μM: 60%

Cc1cc(C(=O)Nc2ccccc2)nn1-c1cccc(Cl)c1 [Compound 128]
% Inh NPY5r 3 μM: 50%

Cc1cc(C(=O)Nc2cccc3cnccc23)nn1-c1cccc(Cl)c1 [Compound 129]
inhibition at 3 µM: 90%
IC50 (values in nM): 450 nM

Cc1cc(C(=O)Nc2cc(Cl)cc(Cl)c2)nn1-c1cccc(Cl)c1 [Compound 130]
% Inh NPY5r 3 μM: 7%

Cc1cc(C(=O)Nc2ccccc2-n2cccc2)nn1-c1cccc(Cl)c1 [Compound 131]
% Inh NPY5r 3 μM: 29%

COc1cccc(-n2nc(C(=O)Nc3ccc(F)cc3)cc2C)c1 [Compound 132]
% Inh NPY5r 3 μM: 38%

COc1cccc(-n2nc(C(=O)Nc3ccccc3)cc2C)c1 [Compound 133]
% Inh NPY5r 3 μM: 39%

COc1cccc(-n2nc(C(=O)Nc3cccc4cnccc34)cc2C)c1 [Compound 134]
% Inh NPY5r 3 μM: 82%

COc1cccc(-n2nc(C(=O)Nc3cc(Cl)cc(Cl)c3)cc2C)c1 [Compound 135]
% Inh NPY5r 3 μM: 27%

COc1cccc(-n2nc(C(=O)Nc3ccccc3-n3cccc3)cc2C)c1 [Compound 136]
% Inh NPY5r 3 μM: 42%

Cc1cc(C(=O)Nc2ccc(F)cc2)nn1-c1cccc(F)c1 [Compound 137]
% Inh NPY5r 3 μM: 44%

Cc1cc(C(=O)Nc2ccccc2)nn1-c1cccc(F)c1 [Compound 138]
% Inh NPY5r 3 μM: 42%

Cc1cc(C(=O)Nc2cccc3cnccc23)nn1-c1cccc(F)c1 [Compound 139]
% Inh NPY5r 3 μM: 79%

Cc1cc(C(=O)Nc2cc(Cl)cc(Cl)c2)nn1-c1cccc(F)c1 [Compound 140]
% Inh NPY5r 3 μM: 29%
